Experimental data from the supplement of paper PMC10307832.

Experiments:
Assay in all cases: relative viability (nuclei count vs DMSO), 5 days (fraction); higher = more cells survive
Linsitinib + Phenformin = compound: C[C@]1(O)C[C@@H](c2nc(-c3ccc4ccc(-c5ccccc5)nc4c3)c3c(N)nccn32)C1 [Linsitinib] + N=C(N)NC(=N)NCCc1ccccc1 [Phenformin] (partner 250 µM)
Method in brief: (§1)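 Cells from lung cancer lines were seeded into 1536-well plates and, one day later, dosed by pin tool. Treatments were either a single drug or a fixed dose of an anchor drug with five library-drug doses (not always all listed) in √10 steps. After 5 days, nuclei were stained in a one-step fixation (final 0.05% Triton X-100, 1% formaldehyde, 1 ug/ml Hoechst) and counted on 4× images, and relative viability is the treated-to-vehicle nuclei ratio, as the median of duplicate plates.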

Linsitinib + AZD7762 = compound: C[C@]1(O)C[C@@H](c2nc(-c3ccc4ccc(-c5ccccc5)nc4c3)c3c(N)nccn32)C1 [Linsitinib] + NC(=O)Nc1cc(-c2cccc(F)c2)sc1C(=O)N[C@H]1CCCNC1 [AZD7762] (partner 0.2 µM)
Method in brief: as §1

Ispinesib + Lapatinib = compound: Cc1ccc(C(=O)N(CCCN)[C@@H](c2nc3cc(Cl)ccc3c(=O)n2Cc2ccccc2)C(C)C)cc1 [Ispinesib] + CS(=O)(=O)CCNCc1ccc(-c2ccc3ncnc(Nc4ccc(OCc5cccc(F)c5)c(Cl)c4)c3c2)o1 [Lapatinib] (partner 2 µM)
Method in brief: as §1

Ispinesib + Pemetrexed = compound: Cc1ccc(C(=O)N(CCCN)[C@@H](c2nc3cc(Cl)ccc3c(=O)n2Cc2ccccc2)C(C)C)cc1 [Ispinesib] + Nc1nc2[nH]cc(CCc3ccc(C(=O)N[C@@H](CCC(=O)O)C(=O)O)cc3)c2c(=O)[nH]1 [Pemetrexed] (partner 0.2 µM)
Method in brief: as §1

| Cell Line | relative viability (Linsitinib + Phenformin; first compound 0.01 µM) | relative viability (Linsitinib + Phenformin; first compound 0.03162 µM) | relative viability (Linsitinib + Phenformin; first compound 0.1 µM) | relative viability (Linsitinib + Phenformin; first compound 0.3162 µM) | relative viability (Linsitinib + Phenformin; first compound 1 µM) | relative viability (Linsitinib + AZD7762; first compound 0.01 µM) | relative viability (Linsitinib + AZD7762; first compound 0.03162 µM) | relative viability (Linsitinib + AZD7762; first compound 0.1 µM) | relative viability (Linsitinib + AZD7762; first compound 0.3162 µM) | relative viability (Linsitinib + AZD7762; first compound 1 µM) | relative viability (Ispinesib + Lapatinib; first compound 0.001 µM) | relative viability (Ispinesib + Lapatinib; first compound 0.003162 µM) | relative viability (Ispinesib + Lapatinib; first compound 0.01 µM) | relative viability (Ispinesib + Lapatinib; first compound 0.03162 µM) | relative viability (Ispinesib + Lapatinib; first compound 0.1 µM) | relative viability (Ispinesib + Pemetrexed; first compound 0.001 µM) | relative viability (Ispinesib + Pemetrexed; first compound 0.003162 µM) | relative viability (Ispinesib + Pemetrexed; first compound 0.01 µM) | relative viability (Ispinesib + Pemetrexed; first compound 0.03162 µM) | relative viability (Ispinesib + Pemetrexed; first compound 0.1 µM) |
| --- | --- | --- | --- | --- | --- | --- | --- | --- | --- | --- | --- | --- | --- | --- | --- | --- | --- | --- | --- | --- |
| NCI-H1915 | 0.371 | 0.389 | 0.247 | 0.339 | 0.373 | 0.661 | 0.641 | 0.785 | 0.748 | 0.538 | 0.958 | 1.06 | 1 | 0.363 | 0.139 | 0.518 | 0.528 | 0.516 | 0.294 | 0.113 |
| NCI-H3122 | 0.378 | 0.352 | 0.309 | – | 0.335 | 0.985 | 0.992 | 0.968 | – | 0.765 | 0.986 | 1.01 | 1.07 | 0.72 | 0.21 | 0.196 | 0.221 | 0.198 | 0.217 | 0.107 |
| NCI-H1993 | 0.523 | 0.465 | 0.572 | 0.526 | 0.526 | 0.734 | 0.773 | 0.623 | 0.509 | 0.513 | 0.871 | 0.899 | 0.764 | 0.759 | 0.58 | 0.652 | 0.677 | 0.637 | 0.587 | 0.404 |
| NCI-H2405 | 0.406 | 0.446 | 0.384 | 0.377 | 0.292 | 0.74 | 0.662 | 0.711 | 0.859 | 0.474 | 1.08 | 1.12 | 1.18 | 0.918 | 0.308 | 1.1 | 1.06 | 0.9 | 0.934 | 0.423 |
